In patent US20250230155A1 (Vanderbilt University, priority 2021, published 2025):

Biological target: T1, human mAChR M4 (Homo sapiens, UniProt P08173)
T1 construct: expressed in transfected cells
T1 sequence (P08173 1-479): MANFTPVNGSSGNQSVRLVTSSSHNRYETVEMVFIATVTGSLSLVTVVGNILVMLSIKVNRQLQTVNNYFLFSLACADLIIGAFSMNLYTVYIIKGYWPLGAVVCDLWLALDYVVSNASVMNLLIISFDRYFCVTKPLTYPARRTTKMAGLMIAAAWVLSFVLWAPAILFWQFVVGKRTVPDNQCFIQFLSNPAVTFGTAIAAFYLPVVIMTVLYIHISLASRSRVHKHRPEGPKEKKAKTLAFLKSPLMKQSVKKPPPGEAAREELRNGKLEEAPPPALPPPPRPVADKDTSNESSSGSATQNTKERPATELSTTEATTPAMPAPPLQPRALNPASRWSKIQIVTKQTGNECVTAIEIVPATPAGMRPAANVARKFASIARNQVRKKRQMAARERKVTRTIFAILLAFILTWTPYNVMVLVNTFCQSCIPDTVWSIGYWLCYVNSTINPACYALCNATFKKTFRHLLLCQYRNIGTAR
Experiment: mAChR M4 cell-based functional assay (calcium mobilization, CHO-K1 hM4-Gqi5 cells)
Details: for Emax at 30 µM: CHO-K1, % ACh maximum at 30 μM, human M4; for EC50: positive allosteric modulator activity, increase in the EC20 acetylcholine response, CHO-K1 hM4-Gqi5 cells, read-out: Human M4 EC50
Summary of the method: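 Fluorescent calcium read-out (Fluo-4 AM, FDSS, 1 Hz) in hM4-Gqi5 CHO-K1 cells, 11-point 1:3 compound series. Agonism scored on compound addition, PAM activity as increase of the 144 s EC20 acetylcholine response, antagonism as decrease of the 230 s EC80 response; four-parameter logistic fits give EC50 and Emax.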

## COC1(C)CN(C(=O)c2cc(C)c(N3CCc4ncc(N5CCCn6nccc65)cc4C3)nn2)C1 [Example 552, (6-(3-(6,7-dihydropyrazolo[1,5-a]pyrimidin-4(5H)-yl)-7,8-dihydro-1,6-naphthyridin-6(5H)-yl)-5-methylpyridazin-3-yl)(3-methoxy-3-methylazetidin-1-yl)methanone]
  Emax at 30 µM: 76%
  EC50: 0.022 µM

## Cc1cc(C(=O)NC2(c3cccnc3)CC2)nnc1N1CCc2ncc(N3CCCn4nccc43)cc2C1 [Example 553, 6-(3-(6,7-dihydropyrazolo[1,5-a]pyrimidin-4(5H)-yl)-7,8-dihydro-1,6-naphthyridin-6(5H)-yl)-5-methyl-N-(1-(pyridin-3-yl)cyclopropyl)pyridazine-3-carboxamide]
  Emax at 30 µM: 80%
  EC50: 0.021 µM

## Cc1cc(C(=O)N2CC(CO)C2)nnc1N1CCc2ncc(N3CCCn4nccc43)cc2C1 [Example 554, (6-(3-(6,7-dihydropyrazolo[1,5-a]pyrimidin-4(5H)-yl)-7,8-dihydro-1,6-naphthyridin-6(5H)-yl)-5-methylpyridazin-3-yl)(3-(hydroxymethyl)azetidin-1-yl)methanone]
  Emax at 30 µM: 78%
  EC50: 0.016 µM

## Cc1cc(C(=O)N2CC3(C2)CC(F)(F)C3)nnc1N1CCc2ncc(N3CCCn4nccc43)cc2C1 [Example 555, (6,6-difluoro-2-azaspiro[3.3]heptan-2-yl)(6-(3-(6,7-dihydropyrazolo[1,5-a]pyrimidin-4(5H)-yl)-7,8-dihydro-1,6-naphthyridin-6(5H)-yl)-5-methylpyridazin-3-yl)methanone]
  Emax at 30 µM: 83%
  EC50: 0.048 µM

## Cc1cc(C(=O)N(C)C)nnc1N1CCc2ncc(N3CCCn4nccc43)cc2C1 [Example 556, 6-(3-(6,7-dihydropyrazolo[1,5-a]pyrimidin-4(5H)-yl)-7,8-dihydro-1,6-naphthyridin-6(5H)-yl)-N,N,5-trimethylpyridazine-3-carboxamide]
  Emax at 30 µM: 87%
  EC50: 1.46 µM

## Cc1cc(C(=O)N2CCC2c2ccccc2)nnc1N1CCc2ncc(N3CCCn4nccc43)cc2C1 (stereo not drawn) [Example 557, (6-(3-(6,7-dihydropyrazolo[1,5-a]pyrimidin-4(5H)-yl)-7,8-dihydro-1,6-naphthyridin-6(5H)-yl)-5-methylpyridazin-3-yl)(2-phenylazetidin-1-yl)methanone]
  Emax at 30 µM: 91%
  EC50: 0.166 µM

## Cc1cc(C(=O)N2CC(C(F)F)C2)nnc1N1CCc2ncc(Nc3ccnn3C)cc2C1 [Example 558, (3-(difluoromethyl)azetidin-1-yl)(5-methyl-6-(3-((1-methyl-1H-pyrazol-5-yl)amino)-7,8-dihydro-1,6-naphthyridin-6(5H)-yl)pyridazin-3-yl)methanone]
  Emax at 30 µM: 90%
  EC50: 0.101 µM

## Cc1cc(C(=O)N2CC(F)C2)nnc1N1CCc2ncc(Nc3ccnn3C)cc2C1 [Example 559, (3-fluoroazetidin-1-yl)(5-methyl-6-(3-((1-methyl-1H-pyrazol-5-yl)amino)-7,8-dihydro-1,6-naphthyridin-6(5H)-yl)pyridazin-3-yl)methanone]
  Emax at 30 µM: 73%
  EC50: 0.064 µM

## Cc1cc(C(=O)N2CC(C)(F)C2)nnc1N1CCc2ncc(Nc3ccnn3C)cc2C1 [Example 560, (3-fluoro-3-methylazetidin-1-yl)(5-methyl-6-(3-((1-methyl-1H-pyrazol-5-yl)amino)-7,8-dihydro-1,6-naphthyridin-6(5H)-yl)pyridazin-3-yl)methanone]
  Emax at 30 µM: 75%
  EC50: 0.064 µM

## Cc1cc(C(=O)N2CC3(COC3)C2)nnc1N1CCc2ncc(Nc3ccnn3C)cc2C1 [Example 561, (5-methyl-6-(3-((1-methyl-1H-pyrazol-5-yl)amino)-7,8-dihydro-1,6-naphthyridin-6(5H)-yl)pyridazin-3-yl)(2-oxa-6-azaspiro[3.3]heptan-6-yl)methanone]
  Emax at 30 µM: 82%
  EC50: 0.169 µM

## Cc1cc(C(=O)N2CC(C(F)F)C2)nnc1N1CCc2ncc(-c3ccnn3C)cc2C1 [Example 562, (3-(difluoromethyl)azetidin-1-yl)(5-methyl-6-(3-(1-methyl-1H-pyrazol-5-yl)-7,8-dihydro-1,6-naphthyridin-6(5H)-yl)pyridazin-3-yl)methanone]
  Emax at 30 µM: 74%
  EC50: 0.091 µM

## Cc1cc(C(=O)N2CC(F)C2)nnc1N1CCc2ncc(-c3ccnn3C)cc2C1 [Example 563, (3-fluoroazetidin-1-yl)(5-methyl-6-(3-(1-methyl-1H-pyrazol-5-yl)-7,8-dihydro-1,6-naphthyridin-6(5H)-yl)pyridazin-3-yl)methanone]
  Emax at 30 µM: 69%
  EC50: 0.074 µM

## Cc1cc(C(=O)N2CC(C)(F)C2)nnc1N1CCc2ncc(-c3ccnn3C)cc2C1 [Example 564, (3-fluoro-3-methylazetidin-1-yl)(5-methyl-6-(3-(1-methyl-1H-pyrazol-5-yl)-7,8-dihydro-1,6-naphthyridin-6(5H)-yl)pyridazin-3-yl)methanone]
  Emax at 30 µM: 72%
  EC50: 0.086 µM

## Cc1cc(C(=O)N2CC3(COC3)C2)nnc1N1CCc2ncc(-c3ccnn3C)cc2C1 [Example 565, (5-methyl-6-(3-(1-methyl-1H-pyrazol-5-yl)-7,8-dihydro-1,6-naphthyridin-6(5H)-yl)pyridazin-3-yl)(2-oxa-6-azaspiro[3.3]heptan-6-yl)methanone]
  Emax at 30 µM: 72%
  EC50: 0.128 µM

## Cc1cc(C(=O)N2CC(F)(F)C2)nnc1N1CCc2ncc(Nc3ccnn3C)cc2C1 [Example 566, (3,3-difluoroazetidin-1-yl)(5-methyl-6-(3-((1-methyl-1H-pyrazol-5-yl)amino)-7,8-dihydro-1,6-naphthyridin-6(5H)-yl)pyridazin-3-yl)methanone]
  Emax at 30 µM: 73%
  EC50: 0.041 µM

## Cc1cc(C(=O)N2CC(F)(F)C2)nnc1N1CCc2ncc(-c3ccnn3C)cc2C1 [Example 567, (3,3-difluoroazetidin-1-yl)(5-methyl-6-(3-(1-methyl-1H-pyrazol-5-yl)-7,8-dihydro-1,6-naphthyridin-6(5H)-yl)pyridazin-3-yl)methanone]
  Emax at 30 µM: 75%
  EC50: 0.07 µM

## Cc1cc(C(=O)N2CC(F)C2)nnc1N1CCc2ncc(-n3cccn3)cc2C1 [Example 568, (6-(3-(1H-pyrazol-1-yl)-7,8-dihydro-1,6-naphthyridin-6(5H)-yl)-5-methylpyridazin-3-yl)(3-fluoroazetidin-1-yl)methanone]
  Emax at 30 µM: 75%
  EC50: 0.161 µM

## Cc1cc(C(=O)N2CC(C)(F)C2)nnc1N1CCc2ncc(-n3cccn3)cc2C1 [Example 569, (6-(3-(1H-pyrazol-1-yl)-7,8-dihydro-1,6-naphthyridin-6(5H)-yl)-5-methylpyridazin-3-yl)(3-fluoro-3-methylazetidin-1-yl)methanone]
  Emax at 30 µM: 78%
  EC50: 0.2 µM

## Cc1cc(C(=O)N2CC3(C2)CC(F)(F)C3)nnc1N1CCc2ncc(-n3cccn3)cc2C1 [Example 570, (6-(3-(1H-pyrazol-1-yl)-7,8-dihydro-1,6-naphthyridin-6(5H)-yl)-5-methylpyridazin-3-yl)(6,6-difluoro-2-azaspiro[3.3]heptan-2-yl)methanone]
  Emax at 30 µM: 84%
  EC50: 0.34 µM

## Cc1cc(C(=O)N2CC3(COC3)C2)nnc1N1CCc2ncc(-n3cccn3)cc2C1 [Example 571, (6-(3-(1H-pyrazol-1-yl)-7,8-dihydro-1,6-naphthyridin-6(5H)-yl)-5-methylpyridazin-3-yl)(2-oxa-6-azaspiro[3.3]heptan-6-yl)methanone]
  Emax at 30 µM: 85%
  EC50: 0.213 µM

## Cc1cc(C(=O)N2CC(F)C2)nnc1N1CCc2ncc(N3CCO[C@H](C)C3)cc2C1 [Example 572, (R)-(3-fluoroazetidin-1-yl)(5-methyl-6-(3-(2-methylmorpholino)-7,8-dihydro-1,6-naphthyridin-6(5H)-yl)pyridazin-3-yl)methanone]
  Emax at 30 µM: 87%
  EC50: 0.051 µM

## Cc1cc(C(=O)N2CC(C)(F)C2)nnc1N1CCc2ncc(N3CCO[C@H](C)C3)cc2C1 [Example 573, (R)-(3-fluoro-3-methylazetidin-1-yl)(5-methyl-6-(3-(2-methylmorpholino)-7,8-dihydro-1,6-naphthyridin-6(5H)-yl)pyridazin-3-yl)methanone]
  Emax at 30 µM: 89%
  EC50: 0.1 µM

## Cc1cc(C(=O)N2CC3(C2)CC(F)(F)C3)nnc1N1CCc2ncc(N3CCO[C@H](C)C3)cc2C1 [Example 574, (R)-(6,6-difluoro-2-azaspiro[3.3]heptan-2-yl)(5-methyl-6-(3-(2-methylmorpholino)-7,8-dihydro-1,6-naphthyridin-6(5H)-yl)pyridazin-3-yl)methanone]
  Emax at 30 µM: 81%
  EC50: 0.193 µM

## Cc1cc(C(=O)N2CC3(COC3)C2)nnc1N1CCc2ncc(N3CCO[C@H](C)C3)cc2C1 [Example 575, (R)-(5-methyl-6-(3-(2-methylmorpholino)-7,8-dihydro-1,6-naphthyridin-6(5H)-yl)pyridazin-3-yl)(2-oxa-6-azaspiro[3.3]heptan-6-yl)methanone]
  Emax at 30 µM: 75%
  EC50: 0.088 µM
